Measured values published in publication PMC9064813, “Interaction of the synthetic antithrombotic peptide P10 with thrombin: a spectroscopy study” (RSC Advances, 2019).
Where no end group is shown, it is not given here.

Legend:
thrombin [1] = settings: cited from earlier work; for inhibition of thrombin activity: at a concentration of 0.4 mg mL^−1, purified from Alcalase 2.4L hydrolysate of peanut protein
Description: In addition, three peptides SWAQL, GNHEAGE and CFNEYE were purified from the A ...

thrombin [2] = molecular target: T1, thrombin (Bos taurus, UniProt P00735); experiment: in vitro antithrombotic activity (thrombin-induced fibrinogen clotting, absorbance at 405 nm); format: biochemical, Bovine
T1 construct: thrombin consists of a 36-residue light chain and a 259-residue heavy chain; purchased Sigma-Aldrich Co. (St. Louis, MO, USA)
Method: Antithrombotic activity was determined according to the method of Yang et al.[53] The samples of thrombin and fibrinogen were dissolved in 0.05 M pH 7.4 Tris–HCl buffer, respectively. The determination was carried out using the IMark plate reader (Uji-shi, Kyoto, Japan) at 405 nm. 140 μL of 1 mg mL^−1 fibrinogen and 40 μL of the sample were added to the microplate, then mixed and the absorbance was recorded as Sb. After, 10 μL of thrombin (12 IU mL^−1) was added to the mixture which was maintained at 37 °C for 10 min, and the absorbance was recorded as S. 40 μL of buffer instead of the sample was used for control group, and the absorbances were Cb and C, respectively. The antithrombotic activity was calculated from eqn (5) as follows:5 [drawing 4]

thrombin [3] = molecular target: T1, thrombin; experiment: fluorescence quenching of thrombin by P10 (Stern-Volmer, binding constant, thermodynamics); set-up: species or system Bovine; settings: 310 K, log (F0 − F)/F against log [Q]
Description: The Stern–Volmer plot at 290 K and 310 K was plotted to determine the quenching mechanism (static quenching or dynamic quenching), as shown in Fig. 2B. F0 and F represented the fluorescence intensity of thrombin in the absence and presence of P10, respectively. And [Q] represented the concentration of the quencher. In general, the stability and quenching constants of the compounds formed under the static quenching mechanism decrease with increasing temperature. The interaction under dynamic quenching increases the number of effective collisions and enhances energy transfer, thus increasing the quenching constant of the fluorescent material as the temperature increases.[26,30]
To confirm this conclusion, the fluorescence quenching data was further analyzed by the Stern–Volmer eqn (1).[31] Where Ksv represented the quenching constant of the Stern–Volmer.1 [drawing 1]
The binding constant (Kb) and the number of binding sites (n) can be obtained from eqn (2) when small molecules are independently bound to a set of equivalent sites on the macromolecule:[33]2 [drawing 2] […]
The fluorescence spectra were recorded on the Hitachi F-4500 fluorescence spectrophotometer (Hitachi, Japan). […] The fluorescence emission spectrum of the mixture from 290 nm to 420 nm was scanned, and the excitation wavelength was set to 280 nm. […]

Question: For KNAENELGEVTVR, which antithrombotic activity (thrombin [1]; at a concentration of 1 mg mL^−1) is on record?
Answer: Its antithrombotic activity is 67.21%.

Question: Which IC50 (thrombin [2]) does the source give for AGFAGDDAPR [P10, AGFAGDDAPR] here?
Answer: Its IC50 is 164 µM.

Question: What about the “Binding constant Kb” value (thrombin [3]) of the same substance?
Answer: The value was 174 M⁻¹.

Question: For “GNHEAGE [peptide purified from the Alcalase 2.4L hydrolysate of peanut protein]”, which “inhibition of thrombin activity” value (thrombin [1]) is on record?
Answer: The value was “complete inhibition”.

Question: For “SWAQL [peptide purified from the Alcalase 2.4L hydrolysate of peanut protein]”, which “inhibition of thrombin activity” value (thrombin [1]) is on record?
Answer: Its value is “complete inhibition”.

Question: For “CFNEYE [peptide purified from the Alcalase 2.4L hydrolysate of peanut protein]”, which “inhibition of thrombin activity” value (thrombin [1]) is on record?
Answer: Its value is “complete inhibition”.

Question: Which “IC50, inhibition of thrombin activity” value (thrombin [1]; peptide purified from Buthus martensii Karsch) does the source give for “VEPVTVNPHE [anticoagulant peptide purified from Buthus martensii Karsch]” here?
Answer: Its value is 0.012 mg/mL.
